One block for each molecule: values may come before it.
Tests used:
[1] = target: T1, p75 receptor (truncated form, residues 1-222) (Homo sapiens, UniProt P08138); assay: Inhibition of 125I-NGF binding to the NGF p75 receptor; conditions: 2 nM 125I-NGF, 2 hours at room temperature; for inhibition at 10 µM: at 10,000 nM, read-out: Inhibition of 125I-NGF Binding to p 75 (% inh); for IC50: read-out: Inhibition of 125I-NGF Binding to p 75 (IC50)
T1 construct: truncated form (residues 1-222, molecular weight=56 KDa) of the p75 receptor; biotin (chemical label, immobilised on streptavidin); purchased Chiron Corporation, Emeryville, Calif; (also commercially available from Austral Biologicals, Inc., San Diego, Calif.)
T1 sequence (P08138 29-250): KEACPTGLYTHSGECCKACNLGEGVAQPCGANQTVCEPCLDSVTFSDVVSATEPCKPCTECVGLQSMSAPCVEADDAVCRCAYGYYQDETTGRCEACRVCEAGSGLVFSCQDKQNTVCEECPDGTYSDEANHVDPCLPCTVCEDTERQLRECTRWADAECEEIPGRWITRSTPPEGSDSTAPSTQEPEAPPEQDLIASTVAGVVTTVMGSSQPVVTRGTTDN
Procedure: Binding assays of novel compounds to the NGF p75 receptor are performed using a truncated form (residues 1-222, molecular weight=56 KDa) of the p75 receptor, originally obtained from Chiron Corporation, Emeryville, Calif., but also commercially available from Austral Biologicals, Inc. (San Diego, Calif.), on plastic 96 well microtiter plates (Immulon II Dynatech). The wells are coated with 50 μl/well of 20 μg/ml streptavidin in a […] (DPBS). The plates are then incubated at room temperature for 6 hours. The excess streptavidin is then poured out, the wells are washed with a 0.1% solution of bovine serum albumin (BSA) in DPBS. To each well is then added […] of a DPBS solution containing the truncated p75 receptor, which has previously been reacted with biotin by standard procedures. The plates are then incubated at room temperature for 2 hours, and washed with 0.2% BSA/DPBS. To each well is added 98 μl of 2 nM ^125 I-NGF, followed by 2 μl/well of a concentration of test compound that is 50 times greater than the desired final test concentration. The plates are incubated for 2 hours at room temperature. […]

[2] = system: basal forebrain cholinergic neurons; conditions: cited from earlier work
Alzheimer's disease = conditions: recent clinical findings in humans; cited from earlier work
sensory neuropathies = conditions: cited from earlier work
[3] = system: substantia nigra dopaminergic neurons; conditions: cited from earlier work

Molecule: NGF: β-subunit, a dimer consisting of two equivalent monomers of approximately 13,000 dalton molecular weight
behavioral impairment associated with atrophied or lesioned basal forebrain cholinergic neurons ([2]; animals with atrophied or lesioned basal forebrain cholinergic neurons): reverse the associated behavioral impairment
ability of brain cholinergic neurons to survive a chemical insult ([2]; chemical insult): enhances the ability of brain cholinergic neurons to survive a chemical insult
degeneration of neurons in the medial septal nucleus after lesion of the septo-hippocampal pathway ([2]; into the cerebrospinal fluid via a miniosmotic pump): This neuronal degeneration can be prevented
usefulness in the treatment of AD (Alzheimer's disease): treatment with NGF is useful in the treatment of AD
development of large-fiber sensory neuropathies from cisplatin, and animal model of diabetes-induced neuropathy (sensory neuropathies; cisplatin, animal model of diabetes-induced neuropathy): efficacious
development of small-fiber sensory neuropathies from taxol (sensory neuropathies; taxol): prevents the development of small-fiber sensory neuropathies

Molecule: O=C(O)c1ccc2nc3ccc(Cl)cc3c(=O)n2n1 [8-Chloro-10-oxo-10H-pyridazino[6,1-b]quinazoline-2-carboxylic acid]
IC50 [1]: 4000 nM

Molecule: CC(=O)Nc1ccc2c(=O)n3nc(C(=O)O)ccc3nc2c1 [7 -Acetylamino-10-oxo-10H-pyridazino[6,1-b]quinazoline-2-carboxylic acid]
inhibition at 10 µM [1]: 42%

Molecule: O=C(Nc1ccc2nc3ccc(C(=O)O)nn3c(=O)c2c1)c1ccccc1 [8-(Benzoylamino)-10-oxo-10H-pyridazino[6,1-b]-quinazoline-2-carboxylic acid]
IC50 [1]: 67 nM

Molecule: COc1ccc2nc3ccc(C(=O)O)nn3c(=O)c2c1 [8-Methoxy-10-oxo-10H-pyridazino[6,1-b]quinazoline-2-carboxylic acid]
IC50 [1]: 1500 nM

Molecule: Cc1ccc2c(=O)n3nc(C(=O)O)ccc3nc2c1 [7-Methyl-10-oxo-10H-pyridazino[6,1-b]quinazoline-2-carboxylic acid]
IC50 [1]: 4900 nM

Molecule: Cc1ccc2nc3ccc(C(=O)O)nn3c(=O)c2c1 [8-Methyl-10-oxo-10H-pyridazino[6,1-b]quinazoline-2-carboxylic acid]
IC50 [1]: 1800 nM

B1: BDNF: member of the neurotrophins, a family of related neurotrophic peptides (protein, UniProt P23560 19-247, looked up)
Neurotrophic factor BDNF …: APMKEANIRGQGGLAYPGVRTHGTLESVNGPKAGSRGLTSLADTFEHVIEELLDEDQKVRPNEENNKDADLYTSRVMLSSQVPLEPPLLFLLEEYKNYLDAANMSMRVRRHSDPARRGELSVCDSISEWVTAADKKTAVDMSGGTVTVLEKVPVSKGQLKQYFYETKCNPMGYTKEGCRGIDKRHWNSQCRTTQSYVRALTMDSKKRIGWRFIRIDTSCVCTLTIKRGR
neurotrophic effects on substantia nigra dopaminergic neurons [3]: exerts neurotrophic effects on substantia nigra dopaminergic neurons

More lines, now with the values ahead:

inhibition at 10 µM [1]: 39%
Molecule: O=C(O)c1ccc2nc3ccccc3c(=O)n2n1 [10-Oxo-10H-pyridazino[6,1-b]quinazoline-2-carboxylic acid]

IC50 [1]: 238 nM
Molecule: Cc1ccc(C(=O)Nc2ccc3nc4ccc(C(=O)O)nn4c(=O)c3c2)cc1 [8-[(4-Methylbenzoyl)amino]-10-oxo-10H-pyridazino [6,1-b]quinazoline-2-carboxylic acid]

IC50 [1]: 2190 nM
Molecule: O=C(O)c1ccc2nc3ccc(C(=O)O)nn3c(=O)c2c1 [10-Oxo-10H-pyridazino[6,1-b]quinazoline-2,8-dicarboxylic acid]

inhibition at 10 µM [1]: 46%
Molecule: O=C(O)c1ccc2c(=O)n3nc(C(=O)O)ccc3nc2c1 [10-Oxo-10H-pyridazino[6,1-b]quinazoline-2,7-dicarboxylic acid]

IC50 [1]: 344 to 369 nM
Molecule: O=C(O)c1ccc2nc3cc4ccccc4cc3c(=O)n2n1 [12-Oxo-12H-benzo[g]pyridazino[3,2-b]quinazoline-2-carboxylic acid]
